Assay results taken from patent publication US20260042771A1, “HETEROCYCLIC COMPOUND FOR INDUCING DEGRADATION OF G12V MUTANT KRAS PROTEIN” (Astellas Pharma Inc., priority 2022, published 2026).

Experiments:
RAS G12V = biological target: T1, RAS G12V (Homo sapiens, UniProt P01116, G12V); experiment: Test Example 1: RAS G12V degradation activity by Cell ELISA in PA-TU-8902; format: cell-based; conditions: for DC50: 50% degradation concentration of RAS G12V, PA-TU-8902 cells, 24 hours, Cell ELISA, corrected with β-actin; for Dmax: PaTu 8902, degradation rate at the most active concentration, DMSO = 0%, Example No. 7 at 3 μM = 100%, PA-TU-8902, 24 hours
T1 construct: host or cells: PA-TU-8902 human pancreatic cancer cells
T1 sequence (P01116 1-188 isoform P01116-2 G12V): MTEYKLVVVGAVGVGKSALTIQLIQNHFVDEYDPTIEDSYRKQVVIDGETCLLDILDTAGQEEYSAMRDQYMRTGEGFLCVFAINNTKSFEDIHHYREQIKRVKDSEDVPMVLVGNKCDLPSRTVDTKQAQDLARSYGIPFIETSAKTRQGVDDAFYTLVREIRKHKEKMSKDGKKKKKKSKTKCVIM
Experimental: Test Example 1: Evaluation of RAS G12V Degradation Activity on Human KRAS G12V Mutant-Positive Pancreatic Cancer Line PA-TU-8902
The RAS G12V degradation activity of test compounds was evaluated by measuring the expression levels of RAS G12V by Cell ELISA.
PA-TU-8902 cells (DSMZ, ACC 179) were seeded at 36 μL per well on 384-well plates (from Greiner bio-one) to give 1.5×10^4 cells per well. As for the cell culture conditions, DMEM medium (from Sigma-Aldrich) containing 10% fetal bovine serum (from Cytiva) was used in the presence of 5% CO2 at 37° C.
The next day, the test compounds (10 points having final concentrations in the range of 3 μM to 0.1 nM), the compound of Example No. 7 having a final concentration of 3 μM as a positive control and dimethyl sulfoxide (DMSO), which was the solvent for the test compounds, as a negative control were diluted 100-fold with a fresh medium and were added at 4 μL per well. The cells were cultured for 24 hours.
The next day, the culture supernatant was removed, and 4% paraformaldehyde phosphate buffer (from FUJIFILM Wako Pure Chemical Corporation) was added at 20 μL per well. The plates were allowed to stand for 30 minutes at room temperature to thus immobilize the cells. Then, the supernatant was removed, and 0.1% Triton X-100 (from Amersham Biosciences)-containing Phosphate buffered saline (PBS) was added at 20 μL per well. After allowing to stand at room temperature for 10 minutes, the supernatant was removed. PBS was added at 25 μL per well, and the supernatant was removed to thus wash each well. The washing was performed twice in total. Subsequent washing operations were performed in the same manner. Next, the supernatant was removed, and 0.5% sodium dodecyl sulfate (SDS; from ThermoFisher Scientific)-containing PBS was added at 20 μL per well. After allowing to stand at room temperature for 10 minutes, the supernatant was removed by centrifugation of the plates. After washing with PBS, the supernatant was removed by centrifugation, and blocking solution (PVDF Blocking Reagent for Can Get Signal [from TOYOBO Co., Ltd.]) was added at 20 μL per well. After allowing to stand for 30 minutes at room temperature, the supernatant was removed by centrifugation and a solution obtained by diluting, as primary antibodies, anti-Ras (G12V Mutant Specific) antibody (Ras (G12V Mutant Specific) (D2H12) Rabbit mAb; from Cell Signaling Technology; 500-fold diluted) and […] (Anti-beta Actin antibody; from Abcam; 5,000-fold diluted) with Can Get Signal Solution 2 (from TOYOBO Co., Ltd.) was added at 15 μL per well. The plates were allowed to stand overnight at 4° C.
The next day, the supernatant was removed by centrifugation and washed with PBS. The supernatant was removed by centrifugation, a solution obtained by diluting, as secondary antibodies, anti-rabbit IgG antibody (IRDye 800CW Goat anti-Rabbit IgG; from LI-COR Biosciences) and anti-mouse IgG antibody (IRDye 680RD Donkey anti-Mouse IgG; from LI-COR Biosciences) 1,000-fold with Can Get Signal Solution 2 was added at 15 μL per well. After allowing to stand at room temperature for 1 hour, the supernatant was removed by centrifugation and washed with PBS. After removing the supernatant, the plates were dried with air at room temperature for 2 hours or more, and the 700 nm and 800 nm fluorescent signals were measured with Aerius (from LI-COR Biosciences).
The degradation rate of RAS G12V was calculated with the RAS G12V signaling value at the time of addition of DMSO taken as 0%, which was corrected with the signaling value of β-actin, and with the RAS G12V signaling value at the time of addition of the compound of Example No. 7 at a final concentration of 3 μM taken as 100%. […]

[1] = tested on: human KRAS G12V mutant-positive pancreatic cancer line PA-TU-8902; experiment: Test Example 3: non-anchorage-dependent cell growth inhibition, spheroid 3D culture; format: cell-based; conditions: PaTu 8902, 144 h, PA-TU-8902 spheroid 3D culture, 6 days, CellTiter Glo 2.0
Experimental: Test Example 3: Evaluation of Non-Anchorage-Dependent Cell Growth Inhibitory Effect on Human KRAS G12V Mutant-Positive Pancreatic Cancer Line PA-TU-8902
The non-anchorage-dependent cell growth inhibitory effect of test compounds was evaluated by spheroid 3D cell culture.
PA-TU-8902 cells were seeded on low-cell-adhesive round bottom 384-well plates (PrimeSurface: from Sumitomo Bakelite) at 36 µL/well to give 5×10^2 cells per well. The cell culture was performed under the same conditions as in Test Example 1.
The next day, the test compounds (8 to 10 points having final concentrations in the range of 3 μM to 0.1 nM) and DMSO, which was the solvent for the test compounds, as a negative control were diluted 100-fold with a fresh medium and were added at 4 μL per well. After culturing in the presence of 5% CO2 at 37° C. for 6 days, CellTiter Glo 2.0 (from Promega) was added at 20 μL per well. After stirring with a plate mixer (from FINEPCR) at normal temperature for 1 hour, the luminescent signals were measured with ARVO X3 (from PerkinElmer).
With the signaling value in treatment with DMSO taken as 0% inhibition and with the signaling value in the medium alone without cells taken as 100% inhibition, the 50% inhibitory concentration values (IC50) were calculated by Sigmoid-Emax nonlinear regression analysis. The inhibition rate at 30 nM was calculated for Example No. 17.

Compound | DC50 (RAS G12V) [nM] | Dmax (RAS G12V) [%] | IC50 [1] [nM]
Cc1c(F)cc2[nH]ncc2c1-c1c(C2CC2)cc2c(NC3CN(c4ncccn4)C3)nc(OCC(C)(C)CN(C)C)nc2c1OCc1ccc(C(=O)N2CCN(Cc3ccc4c(c3)n(C)c(=O)n4C3CCC(=O)NC3=O)C[C@@H]2C)cc1 (some centres unmarked) [Example 8] | 5 | 81 | 48
CO[C@@H](C)COc1nc(NCc2cccnc2)c2cc(C3CC3)c(-c3c(C)c(F)cc4[nH]ncc34)c(OCc3ccc(C(=O)N4CCN(Cc5ccc6c(c5)n(C)c(=O)n6C5CCC(=O)NC5=O)C[C@@H]4C)cc3)c2n1 (some centres unmarked) [Example 4] | 7 | 83 | 74
CO[C@@H](C)COc1nc(N2CC[C@H]2C(N)=O)c2cc(C3CC3)c(-c3c(C)c(F)cc4[nH]ncc34)c(OCc3ccc(CN4CCN(Cc5ccc6c(N7CCC(=O)NC7=O)nn(C)c6c5)CC4=O)cc3)c2n1 (atropisomer, axis not shown) [Example 20, (2S)-1-{(7 M)-6-cyclopropyl-8-({4-[(4-{[3-(2,4-dioxo-1,3-diazinan-1-yl)-1-methyl-1H-indazol-6-yl]methyl)-2-oxopiperazin-1-yl)methyl]phenyl}methoxy)-7-(6-fluoro-5-methyl-1H-indazol-4-yl)-2-[(2S)-2-methoxypropoxy]quinazolin-4-yl)azetidine-2-carboxyamide] | 29 | 85 | 85
Cc1c(F)cc2[nH]ncc2c1-c1c(C2CC2)cc2c(N3CC(C#N)C3)nc(OCC(C)(C)CN(C)C)nc2c1OCc1ccc(C(=O)N2CCN(Cc3ccc4c(N5CCC(=O)NC5=O)nn(C)c4c3)C[C@@H]2C)cc1 (atropisomer, axis not shown) [Example 11] | 11 | 88 | 18
CO[C@@H](C)COc1cc(OC2CN(C(=O)NCCN(C)C)C2)c2cc(C3CC3)c(-c3c(C)c(F)cc4[nH]ncc34)c(OCc3ccc(C(=O)N4CCN(Cc5ccc6c(N7CCC(=O)NC7=O)nn(C)c6c5)C[C@@H]4C)cc3)c2n1 (atropisomer, axis not shown) [Example 18] | 65 | 78 | 149
CO[C@@H](C)COc1nc(N2CC(C#N)C2)c2cc(C3CC3)c(-c3c(C)c(F)cc4[nH]ncc34)c(OCc3ccc(C(=O)N4CC5(CN(Cc6ccc7c(N8CCC(=O)NC8=O)nn(C)c7c6)C5)C4)cc3)c2n1 (atropisomer, axis not shown) [Example 16] | 162 | 95 | 255
CO[C@@H](C)COc1nc(N2CC(C#N)C2)c2cc(C3CC3)c(-c3c(C)c(F)cc4[nH]ncc34)c(OCc3ccc(C(=O)N4CCC5(CCN(CCOc6cccc(N7CCC(=O)NC7=O)c6)CC5)CC4)cc3)c2n1 (atropisomer, axis not shown) [Example 22] | – | – | 5

Continued by falling IC50 [1], values first:

DC50 (RAS G12V) [nM] | Dmax (RAS G12V) [%] | IC50 [1] [nM] | Compound
29 | 74 | 67 | CO[C@@H](C)COc1nc(N2CC[C@@H](N)[C@@H](F)C2)c2cc(C3CC3)c(-c3c(C)c(F)cc4[nH]ncc34)c(OCc3ccc(C(=O)N4CCN(Cc5ccc6c(c5)n(C)c(=O)n6C5CCC(=O)NC5=O)C[C@@H]4C)cc3)c2n1 (stereo partly drawn) [Example 3, 3-(5-{[(3S)-4-{4-[({4-[(3S,4R)-4-amino-3-fluoropiperidin-1-yl]-6-cyclopropyl-7-(6-fluoro-5-methyl-1H-indazol-4-yl)-2-[(2S)-2-methoxypropoxy]quinazolin-8-yl)oxy)methyl]benzoyl}-3-methylpiperazin-1-yl]methyl}-3-methyl-2-oxo-2,3-dihydro-1H-benzimidazol-1-yl)piperidine-2,6-dione]
6 | 88 | 47 | Cc1c(F)cc2[nH]ncc2c1-c1c(C2CC2)cc2c(N3CCOCC3)nc(OCC(C)(C)CN(C)C)nc2c1OCc1ccc(C(=O)N2CCN(Cc3ccc4c(c3)n(C)c(=O)n4N3CCC(=O)NC3=O)C[C@@H]2C)cc1 (atropisomer, axis not shown) [Example 9]
6 | 77 | 42 | CO[C@@H](C)COc1nc(OC2CN(C(=O)NCCN(C)C)C2)c2cc(C3CC3)c(-c3c(C)c(F)cc4[nH]ncc34)c(OCc3ccc(C(=O)N4CCN(Cc5ccc6c(c5)n(C)c(=O)n6C5CCC(=O)NC5=O)C[C@@H]4C)cc3)c2n1 (some centres unmarked) [Example 1]
13 | 87 | 33 | CO[C@@H](C)COc1nc(N2CC(C#N)C2)c2cc(C3CC3)c(-c3c(C)c(F)cc4[nH]ncc34)c(OCc3ccc(C(=O)N4CCN(Cc5ccc6c(N7CCC(=O)NC7=O)nn(C)c6c5)CC4)cc3)c2n1 (atropisomer, axis not shown) [Example 12]
6 | 88 | 22 | Cc1c(F)cc2[nH]ncc2c1-c1c(C2CC2)cc2c(N3CC(C#N)C3)nc(OCC(C)(C)CN(C)C)nc2c1OCc1ccc(C(=O)N2CCN(Cc3ccc4c(c3)n(C)c(=O)n4N3CCC(=O)NC3=O)C[C@@H]2C)cc1 (atropisomer, axis not shown) [Example 10]
4 | 89 | 21 | CO[C@@H](C)COc1nc(N2CC(C#N)C2)c2cc(C3CC3)c(-c3c(C)c(F)cc4[nH]ncc34)c(OCc3ccc(C(=O)N4CCN(Cc5ccc6c(c5)n(C)c(=O)n6C5CCC(=O)NC5=O)C[C@@H]4C)cc3)c2n1 (stereo partly drawn) [Example 2, 1-{(7 M)-6-cyclopropyl-8-({4-[(2S)-4-([1-(2,6-dioxopiperidin-3-yl)-3-methyl-2-oxo-2,3-dihydro-1H-benzimidazol-5-yl]methyl)-2-methylpiperazine-1-carbonyl]phenyl)methoxy)-7-(6-fluoro-5-methyl-1H-indazol-4-yl)-2-[(2S)-2-methoxypropoxy]quinazolin-4-yl)azetidine-3-carbonitrile]
4 | 100 | 12 | CO[C@@H](C)COc1nc(N2CC(C#N)C2)c2cc(C3CC3)c(-c3c(C)c(F)cc4[nH]ncc34)c(OCc3ccc(C(=O)N4CCN(Cc5ccc6c(N7CCC(=O)NC7=O)nn(C)c6c5)C[C@@H]4C)cc3)c2n1 (atropisomer, axis not shown) [Example 14]
– | – | 11 | Cc1c(F)cc2[nH]ncc2c1-c1c(C2CC2)cc2c(N3CC(C#N)C3)nc(OC3CCOCC3)nc2c1OCc1ccc(C(=O)N2CCN(Cc3ccc4c(N5CCC(=O)NC5=O)nn(C)c4c3)C[C@@H]2C)cc1 (atropisomer, axis not shown) [Example 21]
